Results on 2 molecules are retold here after US20210212967A1, “Treatment of Irritable Bowel Syndrome” (Gruenenthal GmbH, priority 2010, published 2021).

Experiment [1] deals with isolated guinea pig ileum. Description: Twitch contractions of the electrically stimulated isolated guinea pig ileum. The protocol:
It was investigated whether tapentadol is able to modulate gastrointestinal motility.
Male guinea pigs (PBW, Charles River, KiBlegg, FRG) weighing 250-350 g were used for the study. The animals were kept under standard housing conditions: light/dark rhythm (06.00-18.00 h light, 18.00-6.00 h dark); room temperature 22±2° C., rel. air humidity 55±5%; 15 air changes per hour, air movement <0,2 m/sec. The animals were given water and an exclusive diet of “Herilan RM 204” (Eggersmann Company, Rinteln/FRG) ad libitum. Before experimental preparation they were kept in groups of up to 5 animals in type IV Makrolon cages (Ebeco Company, Castrop-Rauxel, FRG). There were at least 4 days between delivery and test day.
Tapentadol hydrochloride was dissolved in aqua bidest. Final concentrations in the organ bath ranged from 3·10^−8 to 10^−5 M (cumulative drug application). As opioid antagonist naloxone (10^−6 M) was used.
A four-compartment organ bath (Dept. Biotechnology, Grunenthal GmbH) was employed with 20 ml acrylic glass compartments, organ supports and force transducers (F10 Force transducers, Type 375, HSE, FRG) for the determination of isometric contractions. The organ baths were filled and emptied by means of a semi-automatic dosing arrangement. The nutrient medium in the organ baths was kept at room temperature. In a nutrient storage chamber and in the organ baths the nutrient solution was gassed with carbogen through a frit from 30 min before commencement of the experiment.
The nutrient solution had the following composition:
Parameter: contraction force [g]
Guinea pigs were killed in CO2-atmosphere and the ileum was dissected free from adhering tissue, removed and suspended in the organ bath. After an incubation period of at least 30 min, transmural stimulation pulses were delivered with a duration of 1 ms and an amplitude of 180 mA at 0.03 Hz (Stimulator A310, WPI, FRG) and isometric contractions (Twitch reactions) were recorded. The preparations were pre-tensioned with 1 g. […]
Data were calculated as the mean stimulated contraction force during the period of 4 to 6 min. p. appl. and expressed as percentage of the pre-value. […] All results were expressed as means±s.e.m. of 4 single experiments. For determination of 1050 values, regression lines (y=f log x) were constructed and 1050 values with s.e.m. were calculated using a computer-assisted regression analysis program (Grünenthal GmbH). The reversal of the test compound's activity by the antagonist was expressed as the percentage of the effects of the combination of agonist and antagonist referred to the effects of the test compound alone in the highest concentration according to the following formula: […]

Experiment [2] deals with visceral hyperalgesia induced by rectal administration of mustard oil in mice. Kind of experiment: Mustard oil colitis (visceral pain), prophylactic treatment. In kind it is in vivo. Conditions: i.v. 5 min before mustard oil. The source says: (§1) The effects of tapentadol hydrochloride on visceral hyperalgesia were studied, which was induced by rectal administration of mustard oil in mice (according to Laird J M, Martinez-Caro L, Garcia-Nicas E, Cervero F. (2001) A new model of visceral pain and referred hyperalgesia in the mouse. Pain 92: 335-42). The typical visceral pain behaviour was quantified in three parameters: During the first minutes after mustard oil administration spontaneous visceral pain behaviour occurs. Following this period of spontaneous pain, referred allodynia and hyperalgesia can be quantified by means of von Frey filaments of different strength stimulating the abdomen of the mice.
(§2) Male NMRI mice (28-38 g body weight) from a commercial breeder (Iffa Credo, France) were used. The animals were housed under standardized conditions: light/dark cycle (06.00-18.00 h light, 18.00-06.00 h dark), room temperature 20-24° C., relative air humidity 35-70%, 15 air changes per hour, air movement <0,2 m/sec, tap water and standard diet ad libitum, macrolon type 4 cages with maximally 30 animals per cage. There were at least 5 days between delivery and start of the experiment.
(§3) Tapentadol hydrochloride was dissolved in vehicle solution and injected intra-venously. • Doses: 2.15/ 4.64/ 10.0 mg/kg i.v. (prophylactic) 10.0/ 21.5/ 31.6 mg/kg i.v. (curative) • Administration volume: 10 ml/kg
(§4) Vehicle solution: 0.9% NaCl solution (Fresenius, Bad Homburg, FRG)
(§5) Mustard oil was dissolved in vehicle solution and administered intra-rectally Dose: 50 μl of a 3.5 Vol-% solution per animal • Vehicle solution: PEG 200
Animals were habituated to the test conditions for 20-30 min and stimulated with von Frey filaments onto the abdominal wall. 10 stimulations with von Frey filaments of 1, 4, 8, 16, and 32 mN were applied in ascending order (i.e. 10×1 mN, 10×4 mN, etc.). Animals with more than 25 positive reactions during this phase were excluded. […]
Tapentadol hydrochloride or vehicle was given intravenously (i.v.) 5 min before mustard oil. […] The following parameters were counted: […]

The test system is the same in experiment [3]. Description: Mustard oil colitis (visceral pain), curative treatment. Type of experiment: in vivo.
Text: as §1, §2, §3, §4, §5
Animals were habituated to the test conditions for 20-30 min and stimulated with von Frey filaments onto the abdominal wall. 10 stimulations with von Frey filaments of 1, 4, 8, 16, and 32 mN were applied in ascending order (i.e. 10×1 mN, 10×4 mN, etc.). Animals with more than 25 positive reactions during this phase were excluded. Vaseline was applied in the perianal area to avoid the stimulation of somatic areas with the irritant chemical. Colitis was induced by rectal administration of […] mustard oil (3.5%). Control animals were treated with vehicle (50 μl PEG200). Group sizes were n =7 for all experiments.
Tapentadol hydrochloride or vehicle was given intravenously (i.v.) 4 hours after mustard oil. Seven animals were tested per group. The following parameters were counted 10 minutes before and at different time points after administration of the test compound or vehicle: • 1. Referred allodynia (number of reactions): counting of withdrawal reactions against 10 stimulations with a 1 mN von Frey filament. • 2. Referred hyperalgesia (referred pain score): counting and scoring of withdrawal reactions against 10 stimulations with a 16 mN von Frey filament (Score 1-3, 1=lifting of abdomen, licking, movement, 2=extrusion or flinching of hind paws, slight jumping, strong licking, 3=strong jumping, vocalisation). Percent of maximal possible effect (% MPE) was calculated for each animal based on the baseline taken 10 min before administration of compound or vehicle.
Significance was calculated by paired T-test (* 0.05≥p>0.01; ** 0.01≥p>0.001; *** p≤0.001. ED50 values and 95% confidence intervals were calculated by linear regression.

Experiment [4] has as its target recombinantly produced p-opioid receptor (Homo sapiens, UniProt P35372). The note with it: relative to morphine; cited from earlier work.
The conditions of experiment [5]: clinical studies; cited from earlier work.

Sequence of recombinantly produced p-opioid receptor (P35372 whole entry): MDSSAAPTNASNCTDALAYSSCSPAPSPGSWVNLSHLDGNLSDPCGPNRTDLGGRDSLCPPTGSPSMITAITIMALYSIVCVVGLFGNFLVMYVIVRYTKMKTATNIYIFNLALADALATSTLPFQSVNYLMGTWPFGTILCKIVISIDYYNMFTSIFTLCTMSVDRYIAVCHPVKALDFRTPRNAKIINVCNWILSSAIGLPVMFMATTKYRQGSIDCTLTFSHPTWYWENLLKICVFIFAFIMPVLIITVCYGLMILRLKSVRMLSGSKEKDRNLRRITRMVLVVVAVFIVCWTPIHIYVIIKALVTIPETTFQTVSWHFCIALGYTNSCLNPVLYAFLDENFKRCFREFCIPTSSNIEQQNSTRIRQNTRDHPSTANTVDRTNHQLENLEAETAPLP

In the case of `CC[C@@H](c1cccc(O)c1)[C@@H](C)CN(C)C.Cl` [tapentadol hydrochloride, (1 R,2R)-3-(3-dimethylamino-1-ethyl-2-methyl-propyl)-phenol hydrochloride], the IC50 in experiment [1] (Cavia porcellus, electrically induced twitch contractions, cumulative application 3·10^−8 to 10^−5 M, mean ± s.e.m. of 4 experiments) worked out at 1490 ± 200 nM. Besides, in experiment [1] (naloxone 10^−6 M added after the last application, without wash out), the “% reversal by naloxone” value is reported as 33.3%. Further, in experiment [1] (reduction of electrically induced contractions), the threshold concentration result was “about 10^−7 M”. In experiment [1] (twitch reaction remaining at highest concentration 10^−5 M, mean ± s.e.m., hydrochloride), the “Twitch contraction remaining at highest concentration (% of pre-value)” value is recorded as 5.77±1.26 % pre-value. For the same molecule, the “ED50 referred allodynia (95% confidence intervals)” value in experiment [2] (1 mN von Frey filament, 20-40 min after mustard oil) was 3.75 (2.76-4.75) mg/kg i.v; in experiment [3] (i.v. 4 hours after mustard oil, 1 mN von Frey filament), 21.7 (19.3-25.0) mg/kg i.v. Besides, the “ED50 referred hyperalgesia (95% confidence intervals)” value in experiment [2] (16 mN von Frey filament, 20-40 min after mustard oil) was 3.93 (2.32-5.69) mg/kg i.v; in experiment [3] (i.v. 4 hours after mustard oil, 16 mN von Frey filament), 16.3 (12.5-19.9) mg/kg i.v. Moreover, the “ED50 spontaneous visceral pain behaviour (95% confidence intervals)” value in experiment [2] (scored 2-12 min after mustard oil) is listed as 1.47 (0.51-2.28) mg/kg i.v. Moreover, the “efficacy reached at highest dose” value in experiment [3] (31.6 mg/kg i.v.) is on record as “Almost full efficacy”. Also, in experiment [3] (i.v., time course), the “duration of action in the referred hyperalgesia” value is “more than 2 h”. Further, the “time of maximal efficacy after administration” value in experiment [3] (i.v., time course) is recorded as 20 min.

Regarding `CC[C@@H](c1cccc(O)c1)[C@@H](C)CN(C)C` [tapentadol, (1R,2R)-3-(3-dimethylamino-1-ethyl-2-methyl-propyl)-phenol], the “affinity, times less than that of morphine” value in experiment [4] was 18 times. Also, the “pain-alleviating action relative to morphine” value in experiment [5] is “two to three times less than that of morphine”.
